# Assay results reported in PubChem BioAssay AID330 (DTP/NCI, 2004).
# “And” between values parts separate entries of the source, which are not always exact repeats. Equal entries are not always repeated. Toxic doses and inconclusive results are not listed. Square brackets hold non-standard residues; d marks the D form. Peptide text beside a SMILES is read from it. ξ: configuration not given here. ξhCys = NC(CCS)C(=O)O
# Tested on: P388 leukemia ip, CD2F1 mice, survival T/C
# Assay: NCI In Vivo Anticancer Drug Screen. Data for tumor model P388 Leukemia (intraperitoneal) in CD2F1 (CDF1) mice
# Conditions: endpoint: median survival time, higher = longer survival
# Outline: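 Mice carrying the transplanted tumor received test compound or vehicle. Survival was recorded in each group, and the value is the treated-group measurement divided by that of the vehicle-treated control group.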
# [1] = dose: 50.0 mg/kg/injection, schedule: Q01DX005 (ip), vehicle: saline with Tween-80
# [2] = dose: 100.0 mg/kg/injection, schedule: Q01DX005 (ip), vehicle: saline with Tween-80
# [3] = dose: 200.0 mg/kg/injection, schedule: Q01DX005 (ip), vehicle: saline with Tween-80
# [4] = dose: 50.0 mg/kg/injection, schedule: Q01DX005 (ip), vehicle: Klucel (hydroxypropylcellulose) (HPC)
# [5] = dose: 100.0 mg/kg/injection, schedule: Q01DX005 (ip), vehicle: Klucel (hydroxypropylcellulose) (HPC)
# [6] = dose: 200.0 mg/kg/injection, schedule: Q01DX005 (ip), vehicle: Klucel (hydroxypropylcellulose) (HPC)
# [7] = dose: 50.0 mg/kg/injection, schedule: Q01DX009 (ip), vehicle: saline
# [8] = dose: 100.0 mg/kg/injection, schedule: Q01DX009 (ip), vehicle: saline
# [9] = dose: 60.0 mg/kg/injection, schedule: Q01DX005 (ip), vehicle: saline with Tween-80
# [10] = dose: 120.0 mg/kg/injection, schedule: Q01DX005 (ip), vehicle: saline with Tween-80
# [11] = dose: 240.0 mg/kg/injection, schedule: Q01DX005 (ip), vehicle: saline with Tween-80
# [12] = dose: 50.0 mg/kg/injection, schedule: Q01DX009 (ip), vehicle: saline with Tween-80
# [13] = dose: 100.0 mg/kg/injection, schedule: Q01DX009 (ip), vehicle: saline with Tween-80
# [14] = dose: 200.0 mg/kg/injection, schedule: Q01DX009 (ip), vehicle: saline
smiles,measurement,setting,value
Cc1cc(N)nc2cc(N)ccc12,T/C,"dose: 15.0 mg/kg/injection, schedule: Q01DX005 (ip), vehicle: Klucel (hydroxypropylcellulose) (HPC)",89 % of control
same,T/C,"dose: 30.0 mg/kg/injection, schedule: Q01DX005 (ip), vehicle: Klucel (hydroxypropylcellulose) (HPC)",99 % of control
same,T/C,"dose: 60.0 mg/kg/injection, schedule: Q01DX005 (ip), vehicle: Klucel (hydroxypropylcellulose) (HPC)",98 % of control
O=C1N=c2ccc(Br)cc2=C1c1sc(=O)n(Cc2nc3ccccc3[nH]2)c1O,T/C,"dose: 100.0 mg/kg/injection, schedule: Q01DX001 (ip), vehicle: Klucel (hydroxypropylcellulose) (HPC)",95 % of control
same,T/C,"dose: 200.0 mg/kg/injection, schedule: Q01DX001 (ip), vehicle: Klucel (hydroxypropylcellulose) (HPC)",93 % of control
same,T/C,"dose: 400.0 mg/kg/injection, schedule: Q01DX001 (ip), vehicle: Klucel (hydroxypropylcellulose) (HPC)",90 % of control
C=C(C)C(=O)N/C(N)=N\C(N)=O,T/C,"dose: 50.0 mg/kg/injection, schedule: Q01DX005 (ip), vehicle: saline",98 % of control
same,T/C,"dose: 100.0 mg/kg/injection, schedule: Q01DX005 (ip), vehicle: saline",101 % of control
same,T/C,"dose: 200.0 mg/kg/injection, schedule: Q01DX005 (ip), vehicle: saline",112 % of control
COc1ccc(C(OC)c2cc(C(C)(C)C)c(O)c(C(C)(C)C)c2)cc1 (configuration not stated),T/C,[1],102 % of control
same,T/C,[2],109 % of control
same,T/C,[3],112 % of control
CCOC(=O)C(Cc1ccc(O)c(C#N)c1)NC(C)=O (configuration not stated),T/C,[1],97 % of control
same,T/C,[2],97 % of control
same,T/C,[3],95 % of control
S=c1nc(N2CCOCC2)n(/C=C/c2ccccc2)c(=S)n1C(=N/C=C/c1ccccc1)N1CCOCC1,T/C,"dose: 25.0 mg/kg/injection, schedule: Q04DX003 (ip), vehicle: saline with Tween-80",113 % of control
same,T/C,"dose: 50.0 mg/kg/injection, schedule: Q04DX003 (ip), vehicle: saline with Tween-80",89 % of control
same,T/C,"dose: 100.0 mg/kg/injection, schedule: Q04DX003 (ip), vehicle: saline with Tween-80",91 % of control and 97 % of control
same,T/C,"dose: 400.0 mg/kg/injection, schedule: Q04DX003 (ip), vehicle: saline with Tween-80",87 % of control
CC1(C)OC2CC(=O)OCC23C1CC(=O)C1(C)C2=CC(=O)OC(c4ccoc4)C2(C)CCC13 (configuration not stated),T/C,"dose: 0.5 mg/kg/injection, schedule: Q01DX009 (ip), vehicle: saline + alcohol",106 % of control
same,T/C,"dose: 1.0 mg/kg/injection, schedule: Q01DX009 (ip), vehicle: saline + alcohol",108 % of control
same,T/C,"dose: 2.0 mg/kg/injection, schedule: Q01DX009 (ip), vehicle: saline + alcohol",101 % of control
same,T/C,"dose: 4.0 mg/kg/injection, schedule: Q01DX009 (ip), vehicle: saline + alcohol",105 % of control
Nc1nc(=S)c2[nH]c(-c3ccccc3)nc2[nH]1,T/C,"dose: 12.5 mg/kg/injection, schedule: Q01DX005 (ip), vehicle: other",106 % of control
same,T/C,"dose: 25.0 mg/kg/injection, schedule: Q01DX005 (ip), vehicle: other",100 % of control
same,T/C,"dose: 50.0 mg/kg/injection, schedule: Q01DX005 (ip), vehicle: other",102 % of control
same,T/C,"dose: 100.0 mg/kg/injection, schedule: Q01DX005 (ip), vehicle: other",100 % of control
CSC(=S)NNC1=NCCCCC1,T/C,"dose: 50.0 mg/kg/injection, schedule: Q01DX009 (ip), vehicle: Klucel (hydroxypropylcellulose) (HPC)",106 % of control
same,T/C,"dose: 100.0 mg/kg/injection, schedule: Q01DX009 (ip), vehicle: Klucel (hydroxypropylcellulose) (HPC)",97 % of control
same,T/C,"dose: 200.0 mg/kg/injection, schedule: Q01DX009 (ip), vehicle: Klucel (hydroxypropylcellulose) (HPC)",87 % of control
CCN(CC)C1=Nc2ccccc2N(c2ccccc2)C(=S)C1,T/C,[4],106 % of control
same,T/C,[5],103 % of control
same,T/C,[6],100 % of control
CCSCCC(NC(=O)CN)C(=O)O (configuration not stated) (H-Gly-[ξhCys](Et)-OH),T/C,[7],112 % of control
same,T/C,[8],94 % of control
O=C(Nc1ccc(C2=NCCN2)cc1)c1cc2ccc(C3=NCCN3)cc2[nH]1,T/C,"dose: 12.5 mg/kg/injection, schedule: Q04DX003 (ip), vehicle: saline",101 % of control
same,T/C,"dose: 25.0 mg/kg/injection, schedule: Q04DX003 (ip), vehicle: saline",112 % of control
same,T/C,"dose: 50.0 mg/kg/injection, schedule: Q04DX003 (ip), vehicle: saline",118 % of control
O=C1CC23c4ccccc4N4C(=O)CC5OCC=C6CN1C2CC6C5C43 (configuration not stated),T/C,[9],101 % of control
same,T/C,[10],92 % of control
same,T/C,[11],92 % of control
CCN(CC)CCOc1cccc(C)c1C,T/C,"dose: 25.0 mg/kg/injection, schedule: Q01DX009 (ip), vehicle: saline with Tween-80",100 % of control
same,T/C,[12],95 % of control
same,T/C,[13],104 % of control
CCOC(=O)/C(C(=N)c1nc(C)c(C(=O)OCC)c(C(N)=O)n1)=C(/C)O,T/C,[4],113 % of control
same,T/C,[5],102 % of control and 90 % of control
same,T/C,[6],90 % of control and 94 % of control
O=C1C=Cc2cccc3ccc(O)c1c23,T/C,[4],104 % of control
same,T/C,[5],109 % of control
same,T/C,[6],104 % of control
CN1C(c2ccccc2)=C(C#N)C(=O)CC(c2ccco2)N1C (configuration not stated),T/C,[9],98 % of control
same,T/C,[10],92 % of control
same,T/C,[11],89 % of control
Oc1ccccc1N=Cc1ccc2c(c1)OCO2,T/C,"dose: 25.0 mg/kg/injection, schedule: Q01DX005 (ip), vehicle: saline with Tween-80",103 % of control
same,T/C,[1],110 % of control
same,T/C,[2],104 % of control
same,T/C,[3],110 % of control
COc1cccc(/C=C/c2ccnnc2)c1,T/C,[7],96 % of control
same,T/C,[8],95 % of control
same,T/C,[14],95 % of control
COc1cccc2c1C(=O)c1c(O)c3c(c(O)c1C2=O)CC(NO)CC3OC1CC(NC(=O)C(F)(F)F)C(O)C(C)O1 (configuration not stated),T/C,"dose: 1.56 mg/kg/injection, schedule: Q01DX009 (ip), vehicle: other",103 % of control and 101 % of control
same,T/C,"dose: 3.13 mg/kg/injection, schedule: Q01DX009 (ip), vehicle: other",104 % of control and 106 % of control
same,T/C,"dose: 6.25 mg/kg/injection, schedule: Q01DX009 (ip), vehicle: other",108 % of control and 110 % of control
same,T/C,"dose: 12.5 mg/kg/injection, schedule: Q01DX009 (ip), vehicle: other",113 % of control
same,T/C,"dose: 25.0 mg/kg/injection, schedule: Q01DX009 (ip), vehicle: other",116 % of control and 107 % of control
COC(=O)C1(CC(=O)CC(=O)CC2(C(=O)OC)NC(=S)NC(=O)C2C#N)NC(=S)NC(=O)C1C#N (configuration not stated),T/C,[9],106 % of control
same,T/C,[10],100 % of control
same,T/C,[11],100 % of control
CN(C)c1ccc(NN=O)nc1,T/C,"dose: 1.56 mg/kg/injection, schedule: Q01DX009 (ip), vehicle: water",122 % of control
same,T/C,"dose: 6.25 mg/kg/injection, schedule: Q01DX009 (ip), vehicle: water",150 % of control
same,T/C,"dose: 12.5 mg/kg/injection, schedule: Q01DX009 (ip), vehicle: water",110 % of control
COc1ccc(Cc2cc(C(C)(C)C)cc(C(C)(C)C)c2OC)cc1,T/C,"dose: 50.0 mg/kg/injection, schedule: Q01DX005 (ip), vehicle: distilled water + alcohol",99 % of control
same,T/C,"dose: 100.0 mg/kg/injection, schedule: Q01DX005 (ip), vehicle: distilled water + alcohol",96 % of control
same,T/C,"dose: 200.0 mg/kg/injection, schedule: Q01DX005 (ip), vehicle: distilled water + alcohol",99 % of control
BrC=C(Br)Br,T/C,[1],104 % of control
same,T/C,[2],100 % of control
same,T/C,[3],95 % of control
CC(=O)OC1CC2CCC3C(CCC4(C)C3CC([N+]3(C)CCCCC3)C4OC(C)=O)C2(C)CC1[N+]1(C)CCCCC1 (configuration not stated),T/C,"dose: 12.5 micrograms/kg/injection, schedule: Q01DX009 (ip), vehicle: saline",103 % of control
same,T/C,"dose: 25.0 micrograms/kg/injection, schedule: Q01DX009 (ip), vehicle: saline",100 % of control
same,T/C,"dose: 50.0 micrograms/kg/injection, schedule: Q01DX009 (ip), vehicle: saline",103 % of control
CNC(=S)N(C)C,T/C,[7],98 % of control
same,T/C,[8],99 % of control
same,T/C,[14],109 % of control
COc1ccc(/C=C/C(=O)c2ccccc2)cc1OC,T/C,[12],103 % of control
same,T/C,[13],114 % of control
same,T/C,"dose: 200.0 mg/kg/injection, schedule: Q01DX009 (ip), vehicle: saline with Tween-80",100 % of control
CCOC(=N)c1ccc(C(=N)OCC)cc1,T/C,"dose: 60.0 mg/kg/injection, schedule: Q01DX005 (ip), vehicle: saline",97 % of control
same,T/C,"dose: 120.0 mg/kg/injection, schedule: Q01DX005 (ip), vehicle: saline",100 % of control
same,T/C,"dose: 240.0 mg/kg/injection, schedule: Q01DX005 (ip), vehicle: saline",104 % of control
CC(=O)OCCn1c([N+](=O)[O-])cnc1/C=[N+](/C)[O-],T/C,[7],101 % of control
same,T/C,[8],102 % of control
same,T/C,[14],103 % of control
